Results as given in patent US20240360107A1, “AN EIF4A INHIBITOR WITH A NOVEL MECHANISM OF ACTION” (ARIZONA BOARD OF REGENTS ON BEHALF OF THE UNIVERSITY OF …, priority 2021, published 2024).
“Also recorded” adds a separate entry of the source.

Assays:
eIF4A R110M mutant = molecular target: T1, eIF4A R110M mutant (Homo sapiens, UniProt P60842, R110M); assay: malachite green ATPase assay, eIF4A mutant; type: biochemical
T1 construct: 6xHis with TEV protease site (N, cleaved yes); made in house; host or cells: E. coli BL21-CodonPlus
T1 sequence (P60842 whole entry R110M): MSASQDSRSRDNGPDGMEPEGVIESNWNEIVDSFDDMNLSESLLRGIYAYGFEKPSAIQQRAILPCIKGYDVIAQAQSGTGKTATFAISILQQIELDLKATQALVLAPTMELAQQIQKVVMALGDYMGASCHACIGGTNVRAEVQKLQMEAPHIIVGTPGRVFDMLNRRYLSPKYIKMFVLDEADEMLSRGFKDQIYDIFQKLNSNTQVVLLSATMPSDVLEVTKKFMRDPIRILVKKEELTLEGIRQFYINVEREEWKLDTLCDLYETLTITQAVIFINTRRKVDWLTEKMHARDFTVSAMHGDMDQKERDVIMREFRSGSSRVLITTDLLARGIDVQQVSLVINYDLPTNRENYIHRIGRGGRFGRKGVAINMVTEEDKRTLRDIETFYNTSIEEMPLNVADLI
Protocol: (§1) Furthermore, T158 is predicted to form a hydrogen bond to the […] of the 6-nitro quinoline substitution of compound 28. The ability of the 6-nitro group to form two strong interactions with the binding pocket of eIF4A is the most likely explanation for why this substitution afforded 28 such a large gain in potency for compound 28 compared to other analogs in the inhibitor series. Mutagenesis and recombinant production of mutant eIF4A protein was performed to confirm the docking pose and predicted interactions between compound 28 and its eIF4A binding pocket (FIG. 6D).
(§2) ATPase assay. Recombinant WT or mutant eIF4A was added to a clear bottom 384 well plate (Greiner) in ATPase buffer (20 mM Tris pH 7.4, 80 mM KCl, 2.5 mM MgCl2, 1 mM DTT, 1% glycerol). Compounds were added and the plate was incubated at 37° C. for 20 min. ATP/RNA solution was added to afford a 20 μL per well reaction volume with 750 nM eIF4A, 250 μM ATP, and 0.25 mg/mL Yeast RNA (Sigma) for the initial screen and dose responses, and varying concentrations of ATP and RNA for the kinetic assays. The plate was incubated for 4 h at 37° C. for the initial screen and dose responses, and at seven time points (1 hour-7 hours) for kinetic assays. 0.04% v/v (final concentration) Tween-20 was added to a Malachite Green solution, and the Malachite Green (40 μL per well) was added. The solution was incubated for 5 minutes at room temperature and Absorbance at 660 nm was read on a SpectraMax iD5 plate reader (Molecular Devices).

eIF4A R110L mutant = molecular target: T2, eIF4A R110L mutant (Homo sapiens, UniProt P60842, R110L); assay: malachite green ATPase assay, eIF4A mutant; type: biochemical
T2 construct: 6xHis with TEV protease site (N, cleaved yes); made in house; host or cells: E. coli BL21-CodonPlus
T2 sequence (P60842 whole entry R110L): as the sequence (P60842 whole entry R110M) above, with M110L counted along it
Protocol: as §1, §2

[1] = tested on: HCV IRES-dependent translation of Renilla luciferase; assay: in vitro translation of bicistronic luciferase reporter in rabbit reticulocyte lysate, Renilla luciferase; type: biochemical; conditions: Cycloheximide 600 μM, Silvestrol 100 nM
Excerpt: (§3) A bicistronic luciferase reporter ([…]) (FIG. 7B, top) was programmed into rabbit reticulocyte lysates, cellular extracts capable of performing both cap-dependent and Hepatitis C virus (HCV) internal ribosomal entry site (IRES)-mediated translation. eIF4A is the enzymatic driver of cap-dependent translation and is not involved in translation through HCV IRES. Compounds that inhibit eIF4A should inhibit cap-dependent translation of firefly (FF) luciferase while leaving IRES-mediated translation of Renilla (Ren) luciferase relatively unaffected. The inhibitory activities of cycloheximide, silvestrol, and 28 were assessed in this in vitro translation assay (FIG. 7B, bottom). […] The ability of compound 28 to preferentially target cap-dependent translation in a similar manner as silvestrol provides promising evidence that 28 inhibits eIF4A and not other proteins in the general translational machinery.
(§4) The dual-luciferase reporter plasmid pSP/(CAG)33/FF/HCV/Ren-pA51 was linearized with BamHI and subsequently in vitro transcribed using the Promega mMessage mMachine SP6 transcription kit, according to manufacturer's specifications. RNA was precipitated with LiCI and resuspended in H2O for use in in vitro translation experiments. Rabbit reticulocyte lysate (RRL) (nuclease-treated, Promega) was used to assess inhibitory effects of 28 on translation of the dual-reporter. Briefly, a reaction consisting of 50% RRL, 30 ng/μL reporter RNA, 10 μM Amino Acid Mixture Minus Methionine, 10 μM Amino Acid Mixture Minus Leucine, […], 1 U/μL RNAseOut (Thermo), and drug (final DMSO concentration 1%) were incubated at 30° C. for 90 minutes. The reaction was quenched with 50 μL 1× Passive Lysis Buffer (Promega), 10 μL of the mix was transferred to a 96-well white plate (Cellstar), and the Dual-Reporter Luciferase Assay System (Promega) was used to generate luminescence according to the manufacturer's instructions. Luminescence was detected using a plate reader (BioTek HT Synergy).

[2] = tested on: cap-dependent translation of firefly luciferase; assay: in vitro translation of bicistronic luciferase reporter in rabbit reticulocyte lysate, firefly luciferase; type: biochemical; conditions: Cycloheximide 600 μM, Silvestrol 100 nM
Excerpt: as §3, §4

eIF4A R311E mutant = molecular target: T3, eIF4A R311E mutant (Homo sapiens, UniProt P60842, R311E); assay: malachite green ATPase assay, eIF4A mutant; type: biochemical
T3 construct: 6xHis with TEV protease site (N, cleaved yes); made in house; host or cells: E. coli BL21-CodonPlus
T3 sequence (P60842 whole entry R311E): as the sequence (P60842 whole entry R110M) above, with M110R, R311E counted along it
Excerpt: (§5) Furthermore, eIF4A R311K and R311E mutants were produced and tested with compound 28. As expected, compound 28 had no potency toward R311E, as the positively charged arginine is replaced with a negatively charged glutamic acid that repels the carboxylic acid of compound 28. However, compound 28 also had no potency for eIF4A R311K, even though it still maintains its positive charge. This may be attributed to the inability of this lysine to simultaneously provide hydrogen bond donation and ionic interactions to compound 28 due to geometrical constraints. The molecular docking also predicted that the furan of 28 may form a hydrogen bond with T109, and the butyl group may lie within a small hydrophobic groove within the binding pocket (FIG. 6A). Nevertheless, mutations to R110, T158, and R311 causing drastic losses in potency of compound 28 provided strong evidence that this was the correct binding pocket and pose for compound 28. This site, wedged between each RecA-like domain of eIF4A, is a novel binding pocket that has never been accessed by an eIF4A inhibitor.
(§6) ATPase assay. Recombinant WT or mutant eIF4A was added to a clear bottom 384 well plate (Greiner) in ATPase buffer (20 mM Tris pH 7.4, 80 mM KCl, 2.5 mM MgCl2, 1 mM DTT, 1% glycerol). […] The solution was incubated for 5 minutes at room temperature and Absorbance at 660 nm was read on a SpectraMax iD5 plate reader (Molecular Devices).

eIF4A R311K mutant = molecular target: T4, eIF4A R311K mutant (Homo sapiens, UniProt P60842, R311K); assay: malachite green ATPase assay, eIF4A mutant; type: biochemical
T4 construct: 6xHis with TEV protease site (N, cleaved yes); made in house; host or cells: E. coli BL21-CodonPlus
T4 sequence (P60842 whole entry R311K): as the sequence (P60842 whole entry R110M) above, with M110R, R311K counted along it
Excerpt: as §5, §6

eIF4A = eIF4A (Homo sapiens, UniProt P60842); assay: MANT-ATP fluorescence polarization assay; type: binding; design: 6xHis with TEV protease site (N, cleaved yes); made in house; host or cells: E. coli BL21-CodonPlus; conditions: compound 200 μM or ADP 1 mM; MANT-ATP 100 nM
Sequence of eIF4A (P60842 whole entry): as the sequence (P60842 whole entry R110M) above, with M110R counted along it
Protocol: Additional biochemical testing was performed on compound 28 to investigate its mechanism of eIF4A inhibition. Initially, kinetics experiments were repeated with compound 28, and the results for compound 28 matched those of compound 1 (FIG. 5D, 4A). Upon addition of compound 28, Km and Vmax of eIF4A decreased with respect to ATP. With respect to RNA, eIF4A Km […] and Vmax remained constant. […] Fluorescence polarization (FP) assays were utilized to confirm this mechanism of inhibition by testing the ability of compound 28 to compete fluorescent substrates off eIF4A. First, an FP assay was performed with MANT-ATP, a fluorescent, non-hydrolysable ATP analog, as the substrate.
MANT-ATP fluorescence polarization assay. Recombinant eIF4A (15 μM) was added to a low-volume black 384 well plate (Greiner). Yeast RNA (0.25 mg/mL) was added along with compound (200 μM) or ADP (1 mM) and the plate was incubated for 20 min. MANT-ATP was added (100 nM) and the plate was incubated for 30 min before fluorescence polarization was read at 355 nm:448 nm (Ex:Em) on a SpectraMax iD5 plate reader (Molecular Devices).

In the case of `CCCCc1ccc(-c2ccc(-c3cc(C(=O)O)c4cc([N+](=O)[O-])ccc4n3)o2)cc1` [Compound 28, 2-(5-(4-butylphenyl)furan-2-yl)-6-nitroquinoline-4-carboxylic acid], the “potency against eIF4A mutant in ATPase assay” value (“potency against eIF4A mutant” for short) (eIF4A R110M mutant) is reported as “lost all potency”, the “potency against eIF4A mutant” value (eIF4A R110L mutant) is reported as “lost all potency” and the “effect on HCV IRES-mediated translation (Renilla luciferase)” value [1] is reported as “only show a modest effect on HCV IRES-dependent translation of Renilla luciferase”. For the same molecule, the “effect on cap-dependent translation (firefly luciferase)” value [2] was “inhibit cap-dependent translation of firefly luciferase; also recorded: inhibits cap-dependent translation”, the “potency against eIF4A mutant” value (eIF4A R311E mutant) was “no potency” and the “potency against eIF4A mutant” value (eIF4A R311K mutant) was “no potency”. The “competition of MANT-ATP off eIF4A” value (eIF4A) was “not an ATP-competitive inhibitor”.
